Test results: PMC10290961 (European Journal of Medicinal Chemistry, 2023)

What was measured:
[1] = Stability in GSH environment; type: physicochemical; conditions: 20 mM GSH, pH 7.4 phosphate buffer, 37 °C
[2] = Transmission electron microscopy; type: physicochemical; conditions: for micelle formation (TEM): 50.0 μM, pH 7.4 phosphate buffer
AdV5 = type: cell-based, adenovirus (AdV) 5; conditions: A549 cells
[3] = for decomposition in SGF: 37 °C, within 120 min

CCCCCCCCCCCCCCCCCCSSCCOP(=O)(O)CO[C@H](CO)Cn1ccc(N)nc1=O.N [Compound 1e, 2-(octadecyldisulfanyl)ethyl hydrogen ((((S)-1-(4-amino-2-oxopyrimidin-1(2H)-yl)-3-hydroxypropan-2-yl)oxy)methyl)phosphonate]
stability in GSH environment relative to 1c [1]: significant enhancement in stability | micelle formation (TEM) [2]: could form micelles | stability of micelles in GSH environment (TEM) ([2]; incubated for 4 h in GSH environment): could keep stable

CCCCCCCCCCCCCCCCSSCCOP(=O)(O)CO[C@H](CO)Cn1ccc(N)nc1=O.N [Compound 1d, 2-(hexadecyldisulfanyl)ethyl hydrogen ((((S)-1-(4-amino-2-oxopyrimidin-1(2H)-yl)-3-hydroxylpropan-2-yl)oxy)methyl)phosphonate]
stability in GSH environment relative to 1c [1]: significant enhancement in stability | micelle formation (TEM) [2]: could form micelles

CCCCCCCCCCCCCCSSCCCOP(=O)(O)CO[C@H](CO)Cn1ccc(N)nc1=O.N [Compound 1h, 3-(tetradecyldisulfanyl)propyl hydrogen ((((S)-1-(4-amino-2-oxopyrimidin-1(2H)-yl)-3-hydroxypropan-2-yl)oxy)methyl)phosphonate]
stability in GSH environment relative to 1c [1]: significant enhancement in stability

CCCCCCCCCCCCSSCCCCCCOP(=O)(O)CO[C@H](CO)Cn1ccc(N)nc1=O.N [Compound 1q, 6-(dodecyldisulfanyl)hexyl hydrogen ((((S)-1-(4-amino-2-oxopyrimidin-1(2H)-yl)-3-hydroxypropan-2-yl)oxy)methyl)phosphonate]
fold increase in TI value compared to BCV (anti-AdV5) (AdV5): 8.9 fold | decomposition in SGF [3]: not decomposed

CCCCCCCCSSCCCCCCOP(=O)(O)CO[C@H](CO)Cn1ccc(N)nc1=O.N [Compound 1o, 6-(octyldisulfanyl)hexyl hydrogen ((((S)-1-(4-amino-2-oxopyrimidin-1(2H)-yl)-3-hydroxypropan-2-yl)oxy)methyl)phosphonate]
TI (therapeutic index, CC50/IC50) (VACV): >4

CCCCCCCCCCCCCCSSCCCCOP(=O)(O)CO[C@H](CO)Cn1ccc(N)nc1=O.N [Compound 1m, 4-(tetradecyldisulfanyl)butyl hydrogen ((((S)-1-(4-amino-2-oxopyrimidin-1(2H)-yl)-3-hydroxypropan-2-yl)oxy)methyl)phosphonate]
stability in GSH environment relative to 1c [1]: significant enhancement in stability

CCCCCCCCCCCCCCCCSSCCCCOP(=O)(O)CO[C@H](CO)Cn1ccc(N)nc1=O.N [Compound 1n, 4-(hexadecyldisulfanyl)butyl hydrogen ((((S)-1-(4-amino-2-oxopyrimidin-1(2H)-yl)-3-hydroxypropan-2-yl)oxy)methyl)phosphonate]
micelle formation (TEM) [2]: could form micelles | decomposition in SGF [3]: not decomposed

CCCCCCCCCCCCCCSSCCCCCCOP(=O)(O)CO[C@H](CO)Cn1ccc(N)nc1=O.N [Compound 1r, 6-(tetradecyldisulfanyl)hexyl hydrogen ((((S)-1-(4-amino-2-oxopyrimidin-1(2H)-yl)-3-hydroxypropan-2-yl)oxy)methyl)phosphonate]
stability in GSH environment relative to 1c [1]: significant enhancement in stability | micelle formation (TEM) [2]: could form micelles

CCCCCCCCCCCCCCSSCCOP(=O)(O)CO[C@H](CO)Cn1ccc(N)nc1=O.N [Compound 1c, 2-(tetradecyldisulfanyl)ethyl hydrogen ((((S)-1-(4-amino-2-oxopyrimidin-1(2H)-yl)-3-hydroxypropan-2-yl)oxy)methyl)phosphonate]
remaining after incubation with GSH ([1]; after 360 min): approximately 13% | micelle formation (TEM) [2]: could form micelles | fold TI relative to BCV (VACV): 2.8 fold | remaining in SGF ([3]; SGF pH 2.0, 37 °C, after 120 min): approximately 77%
